# Several values for one entry are separate records, joined by “and”; a condition that tells them apart may be missing. Equal entries are not always repeated.
# Key:
# MRC-5 cells = experiment: TGF-β-induced α-SMA protein expression, western blot; format: cell-based, human; details: TGF-β1 2 ng/ml, 72 h; read-out: IC50, TGF-β-induced α-SMA/GAPDH
# Protocol: MRC-5 cells were cultured in a monolayer with DMEM high-glucose medium supplemented with 10% FBS at 37 °C with 5% CO2. Cells were seeded in six-well plates in three replicate wells per condition at a density of 2.5 × 10^5 cells per well and cultured for 24 h. […] Vehicle (2% FBS–DMEM, containing 0.1% DMSO) was added into the blank control group and the model group, and pre-incubation was continued for 2 h. Next, TGF-β1 was added into each well of the administration group and the model group (final concentration in each well was 2 ng ml^−1), and the same volume of vehicle was added into each well of the blank control group for 72 h of incubation (the culture medium was changed once after 48 h of incubation). After incubation, the cells were collected and digested with 0.5% trypsin, protein was extracted and total protein content was determined by the BCA method.
# For whole-cell lysates, cells were collected and lysed on ice for 20 min with RIPA buffer with protease and phosphatase inhibitors (cOmplete and PhosSTOP, Roche). The protein concentration of the cell lysates was determined using the BCA Protein Assay Kit. […] Integrated intensity of bands from 16-bit blot images was used for quantitation with the software Image Studio Lite. Protein-quantification data of two independent experiments were calculated and analyzed using GraphPad.
# [1] = tested on: primary bronchial epithelial cells from donors with IPF; experiment: EMT by FN1, high-content analysis; format: cell-based, human; details: three donors with IPF
# Protocol: For the measurement of EMT by FN1, on the first day, human primary bronchial epithelial cells were seeded. After 2 d, the medium of the cells was refreshed. […] After 1 h, all cells were treated with 5 ng ml^−1 TGF-β1.
# Segmentation and quantification of α-SMA and FN1 immunoreactivity was carried out with an HCA algorithm, with density × area (D × A) output. Data normalization of raw α-SMA or FN1 (D × A) to percent inhibition values was performed on a plate-to-plate basis.
# Percent inhibition = (100 − (μp − Xi)/(μp − Xn)) × 100
# μp is the average α-SMA or FN1 value of the positive control (TGF-β1 + 1 μM SB525334). μn is the average α-SMA or FN1 value of the vehicle control (TGF-β1 + 0.1% DMSO). Xi is the compound α-SMA or FN1 value. IC50 values for all compounds (if calculable, based on the point of inflection) were calculated with GraphPad Prism using non-linear fit of log (inhibitor) versus response (four parameter).
# DAPI fluorescence was applied for HCA-based quantification of the number of imaged cells on a plate-to-plate basis.
# Percent remaining cells = (Xi/μn) × 100%
# μn is the average number of nuclei of the vehicle control (TGF-β1 + 0.1% DMSO). Xi is the compound number of nuclei.
# NHDF cells [2] = experiment: α-SMA evaluation in NHDF; format: cell-based, human; details: TGF-β 0.1 ng/ml, 72 h; read-out: IC50, α-SMA expression
# Protocol: The medium was then replaced with an assay medium containing or lacking (control conditions) the test compound, and TGF-β (0.1 ng ml^−1) was added or not (unstimulated control). […] All experimental conditions were performed in five replicates. For in situ immunolabeling and image analysis, at the end of the incubation, fibroblasts were rinsed, fixed and permeabilized. […] Image acquisition was performed using a high-resolution imaging system, the IN Cell Analyzer 2200 (GE Healthcare) automated microscope (objective lens, ×20). Five pictures per well were taken. Labeling was quantified by measuring the fluorescence intensity of α-SMA signals normalized to the total number of nuclei identified (integration of numerical data was performed with the Developer Toolbox 1.5, GE Healthcare software).
# NHDF cells [3] = experiment: Fibronectin and procollagen I in supernatant (ELISA); format: cell-based, human; details: TGF-β 10 ng/ml, 72 h
# Protocol: The medium was then replaced with assay medium containing or not containing (control conditions) the test compounds, and TGF-β (10 ng ml^−1) was added or not (unstimulated control). […] Fibronectin and procollagen I contents were measured in the culture supernatants using specific ELISA kits (Takara, MK115 for fibronectin and MK101 for procollagen type I) according to the supplier’s instructions.
# C57BL/6 mice = experiment: Bleomycin-induced lung fibrosis model; format: in vivo, mouse; details: for HE staining (inflammation area) / IL-1beta in BALF / IL-6 in BALF / monocytes, cell count in BALF / neutrophils, cell count in BALF / Lung function (Penh) / Masson Trichrome's staining / Modified Ashcroft Score / collagen I / α-SMA: individual animals; for Lung function (Penh) / Masson Trichrome's staining / Modified Ashcroft Score / collagen I / α-SMA: Fig 3B-C
# Protocol: Mice received bleomycin on day 1 at a dose of 0.66 mg per kg (equivalent to 1 U per kg), in a volume of 50 μl by intratracheal administration, or received saline (sham group). On day 7, dosing with the corresponding compounds was started. The vehicle group (group 1) was treated with 0.5% methylcellulose BID. […] On days 5 and 21, lung function measurement was performed. On day 28, all animals were killed, and blood and tissue samples were collected along with BALF.
# Lung function was measured according to the HDB standard protocol. Expiratory time, relaxation time, peak expiratory flow and peak inspiratory flow were collected and used to calculate Penh data.
# Mice were first anesthetized with Zoletil–xylazine (50 mpk and 10 mpk, i.p.). Next, a 1.5–2-cm longitudinal incision was made on the ventral side of the neck to expose the trachea by blunt dissection, and curved forceps were placed underneath the trachea. A 10–12-cm piece of suture was then threaded underneath the trachea using forceps. The ends of the suture were then pulled cranially to ‘stretch’ the trachea toward the surgeon. A 20-G needle was then used to poke a hole in the trachea as close to the larynx as possible. A 22-G blunt stainless steel needle connected to PE tubing was placed in the hole and inserted approximately 5–8 mm into the trachea. The cannula was secured in the trachea by tying the suture around it with an overhand knot. A 1-ml syringe containing 0.4 ml saline was gently pushed forward and backward three times to recover BALF fluid. BALF was transferred into empty tubes and stored on ice. This process was repeated twice with 0.3 ml saline for a total volume of 1 ml.
# Total cell numbers were counted with a standard hemocytometer by mixing 20 μl BALF with 20 μl trypan blue. Cytospins were prepared by cytocentrifugation using Cytospins at 106g for 5 min, and then smears of BALF cells were stained with Diff-Quick stain. Cell differentiation was performed by counting at least 400 cells using standard hemocytologic criteria to classify them as alveolar macrophages or monocytes, neutrophils, eosinophils or lymphocytes. The rest of the BALF fluid was centrifuged, and supernatants were collected and stored at −80 °C for cytokine, chemokine and total protein analysis.
# From the collected BALF, concentrations of cytokines were measured from mice in groups 2–7 killed on day 28. Mouse BALF cytokines and chemokines were measured using the ELISA Analysis Kit (Sinobest Bio). Mouse BALF soluble collagen was measured using the Soluble Collagen kit (Biocolor). Mouse lung hydroxyproline content was measured using the Hydroxyproline Assay Kit (Njjcbio).
# Left lung lobes were removed from each mouse and fixed in 10% NBF solution, embedded in paraffin and processed to obtain 4-μm sections for staining with H&E. H&E-stained slides were scanned using an Aperio ScanScope Model CS2 (Leica) at ×200 magnification. Images were then opened in the HALO Plus 5 workstation (version 2.3, Indica Labs) program. Using the pen annotation tool, the whole-lung section was selected as an annotation layer. The area of vessels was defined as background using the exclusion drawing tool. The total inflammation area was quantified by selecting the dark blue inflammation cells using the pen annotation tool manually. The percentage of H&E staining (inflammation area/total area of the lung) in the selected annotation was then calculated using the program.
# Masson’s trichrome staining was conducted using a ready-to-use kit (Trichrome Stain (Masson) Kit, HT15, Sigma-Aldrich) as described by the manufacturer.
# Lung sections were cut at a thickness of 4 μm, dried in an oven for 1 h and stained with M&T using our standard protocol.
# [4] = G2 INS018_055 3mpk BID, 3 mg/kg
# [5] = G3 INS018_055 10mpk BID, 10 mg/kg
# [6] = G4 INS018_055 30mpk BID, 30 mg/kg
compound,measurement,setting,value
"CC(C)n1cnc(-c2ccc(F)cc2)c1-c1nc(C(=O)Nc2ccc(N3CCN(C)CC3)cc2)c[nH]1 [INS018_055, 2-[4-(4-fluorophenyl)-1-(prop-2-yl)imidazol-5-yl]-N-[4-(4-methylhexahydropyrazin-1-yl)phenyl]-1H-imidazole-4-carboxamide]",IC50,MRC-5 cells,27.1 nM
same,IC50,[1],250 nM and 320 nM and 400 nM
same,IC50,NHDF cells [2],25 nM
same,IC50,"NHDF cells [3]; read-out: IC50, fibronectin in supernatant",~135 nM
same,IC50,"NHDF cells [3]; read-out: IC50, procollagen I in supernatant",~232 nM
same,reduction in fibrotic area vs vehicle,C57BL/6 mice; 3 mg per kg BID,over 50%
same,reduction in fibrotic area vs vehicle,C57BL/6 mice; 10 mg per kg BID,more than 75%
same,reduction in fibrotic area vs vehicle,C57BL/6 mice; 30 mg per kg BID,more than 75%
same,HE staining (inflammation area),C57BL/6 mice; 3mpk BID,16.35 and 17.87 and 12.71 and 1.09 and 10.2 and 19.47 and 0.4 and 43.83 and 48.17 and 4.33
same,IL-1beta in BALF,C57BL/6 mice; 3mpk BID,154.02 and 147.65 and 144.47 and 164.21 and 155.93 and 168.67 and 177.59
same,IL-6 in BALF,C57BL/6 mice; 3mpk BID,126.67 and 118.83 and 123.05 and 144.15 and 121.24 and 147.77 and 123.65 and 122.44 and 139.33
same,"monocytes, cell count in BALF",C57BL/6 mice; 3mpk BID,48000 and 77000 and 128800 and 211900 and 99500 and 150400 and 143100 and 79600 and 62000
same,"neutrophils, cell count in BALF",C57BL/6 mice; 3mpk BID,31200 and 500 and 700 and 0 and 1000
same,HE staining (inflammation area),C57BL/6 mice; 10mpk BID,21.7 and 0.11 and 5.58 and 22.87 and 0.24 and 8.94 and 0.45 and 42.15 and 0.46 and 0.26
same,IL-1beta in BALF,C57BL/6 mice; 10mpk BID,241.92 and 204.98 and 199.25 and 226 and 212.62 and 229.18 and 207.53 and 202.43 and 189.69 and 227.91
same,IL-6 in BALF,C57BL/6 mice; 10mpk BID,201.44 and 191.8 and 156.22 and 187.57 and 178.53 and 200.84 and 157.42 and 203.86 and 172.5
same,"monocytes, cell count in BALF",C57BL/6 mice; 10mpk BID,40000 and 80000 and 116200 and 4200 and 172000 and 84000 and 29600 and 114100 and 79200 and 38100
same,"neutrophils, cell count in BALF",C57BL/6 mice; 10mpk BID,500 and 0 and 200 and 700
same,HE staining (inflammation area),C57BL/6 mice; 30mpk BID,48.7 and 0.62 and 0.2 and 3.2 and 0.42 and 0.24 and 10.41 and 0.95 and 7.2 and 3.59
same,IL-1beta in BALF,C57BL/6 mice; 30mpk BID,205.62 and 188.42 and 203.7 and 211.35 and 200.52 and 228.54 and 189.06 and 180.78 and 190.33 and 224.09
same,IL-6 in BALF,C57BL/6 mice; 30mpk BID,147.17 and 151.39 and 139.93 and 159.83 and 139.33 and 174.91 and 170.69 and 171.9 and 168.28
same,"monocytes, cell count in BALF",C57BL/6 mice; 30mpk BID,53400 and 20000 and 196300 and 26700 and 124800 and 27500 and 26500 and 61600 and 54600
same,"neutrophils, cell count in BALF",C57BL/6 mice; 30mpk BID,0 and 400 and 1300 and 900
same,Lung function (Penh),C57BL/6 mice; [4],0.6758 and 0.6536 and 0.6784 and 0.8035 and 0.7941 and 0.8536 and 2.1862 and 0.7195 and 0.614 and 0.4863 and 3.086 and 0.8355 and 0.9151
same,Masson Trichrome's staining,C57BL/6 mice; [4],13.42 and 12.85 and 13.06 and 0.67 and 7.67 and 20.55 and 0.21 and 52.81 and 60.17 and 6.1
same,Modified Ashcroft Score,C57BL/6 mice; [4],4.5 and 1.5 and 6 and 3.25
same,collagen I,C57BL/6 mice; [4],1.64 and 0.35 and 0.02 and 1.98 and 3.34 and 1.23 and 0.25 and 0.51 and 0.22 and 0.32
same,α-SMA,C57BL/6 mice; [4],0.37 and 0.33 and 0.09 and 0.57 and 0.58 and 0.29
same,Lung function (Penh),C57BL/6 mice; [5],0.921 and 0.5921 and 0.7137 and 3.621 and 0.8031 and 0.5775 and 0.6428 and 0.5842 and 0.678 and 0.5758 and 0.618 and 0.6177 and 0.711
same,Masson Trichrome's staining,C57BL/6 mice; [5],19.44 and 0.05 and 6.38 and 17.98 and 0.22 and 11.46 and 0.26 and 36.84 and 1 and 0.45
same,Modified Ashcroft Score,C57BL/6 mice; [5],1.25 and 2.5 and 0.75 and 3 and 4.5 and 0.25
same,collagen I,C57BL/6 mice; [5],0.04 and 2.29 and 0.08 and 0.17 and 0.07 and 0.11 and 0.36 and 0.22 and 2.99 and 3.49
same,α-SMA,C57BL/6 mice; [5],0.2 and 0.91 and 0.22 and 0.38 and 0.09 and 0.78 and 0.06 and 0.41 and 2.61
same,Lung function (Penh),C57BL/6 mice; [6],0.81 and 0.4773 and 0.7792 and 0.5085 and 0.4976 and 0.9972 and 0.6276 and 0.4738 and 0.7711 and 0.8367 and 0.5642 and 0.8492 and 0.6495
same,Masson Trichrome's staining,C57BL/6 mice; [6],54.82 and 0.37 and 1.9 and 3.57 and 0.51 and 0.16 and 12.49 and 1.77 and 9.46 and 7.1
